Experimental data taken from patent US12521440B2, “Degradation of bruton's tyrosine kinase (BTK) by conjugation of BTK inhibitors with E3 ligase ligand and methods of use” (BeOne Medicines I GmbH, priority 2021, dated 2026).
pIC50: −log10 of the molar value. Counter-ions that a name gives are not always drawn.

Experiments:
BTK = target: T1, BTK (Homo sapiens, UniProt Q06187); assay: BTK degradation in TMD-8 cells (HTRF assay); format: cell-based; conditions: 6 h treatment, HTRF BTK degradation IC50 (DC50)
T1 construct: endogenous in cells; host or cells: TMD-8 cells
T1 sequence (Q06187 whole entry): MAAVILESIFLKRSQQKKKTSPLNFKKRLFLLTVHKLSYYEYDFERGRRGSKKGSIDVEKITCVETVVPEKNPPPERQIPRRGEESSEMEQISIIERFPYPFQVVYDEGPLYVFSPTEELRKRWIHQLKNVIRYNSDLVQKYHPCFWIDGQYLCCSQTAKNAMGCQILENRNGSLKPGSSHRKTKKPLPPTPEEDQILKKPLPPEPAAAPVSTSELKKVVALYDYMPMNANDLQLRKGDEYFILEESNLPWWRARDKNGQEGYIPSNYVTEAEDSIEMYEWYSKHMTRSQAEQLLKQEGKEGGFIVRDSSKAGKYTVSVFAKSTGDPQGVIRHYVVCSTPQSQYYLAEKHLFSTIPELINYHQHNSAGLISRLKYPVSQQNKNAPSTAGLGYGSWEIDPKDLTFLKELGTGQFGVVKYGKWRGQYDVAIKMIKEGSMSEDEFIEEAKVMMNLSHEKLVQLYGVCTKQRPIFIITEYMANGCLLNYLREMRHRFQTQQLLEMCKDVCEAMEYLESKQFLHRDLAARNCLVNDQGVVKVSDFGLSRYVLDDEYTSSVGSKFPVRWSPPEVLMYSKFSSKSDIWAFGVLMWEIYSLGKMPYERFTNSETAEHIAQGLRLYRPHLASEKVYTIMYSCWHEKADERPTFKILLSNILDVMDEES
Summary of the method: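 BTK levels measured by HTRF (665/620 nm) in lysates of TMD-8 cells after 6 h compound treatment, with antibody incubation overnight at room temperature. Dosing covered 8 points, 6-fold dilutions from 1 mM 500× stocks, 0.2% DMSO final. Four-parameter curve fitting gave DC50.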

HEK-293 cells = assay: HEK-293 cytotoxicity detection (CellTiter-Glo); format: cell-based; conditions: Homo sapiens, 72 h incubation, read-out: HEK293
Summary of the method: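 Cytotoxicity IC50 derived by four-parameter curve fitting of percent inhibition of CellTiter-Glo luminescence. Compounds tested at 8 doses in 4-fold steps, 0.2% DMSO, on HEK-293 cells for 72 h.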

| Compound | DC50 (BTK) | pIC50 (HEK-293 cells) |
| --- | --- | --- |
| Cc1cc(-c2cc(Nc3ccc(N4CCN(C(=O)C5CN(c6cc(F)c(C7CCC(=O)NC7=O)c(F)c6)C5)CC4)cn3)ncn2)ccc1[C@@H](C)NC(=O)c1nc(C(C)(C)C)no1 (stereo partly drawn) [Example 27, 3-(tert-butyl)-N-((1R)-1-(4-(6-((5-(4-(1-(4-(2,6-dioxopiperidin-3-yl)-3,5-difluorophenyl)azetidine-3-carbonyl)piperazin-1-yl)pyridin-2-yl)amino)pyrimidin-4-yl)-2-methylphenyl)ethyl)-1,2,4-oxadiazole-5-carboxamide] | 3.57 nM | < 5.00 |
| Cc1cc(-c2cc(Nc3ccc(N4CCN([C@H]5C[C@H](c6ccc(N[C@H]7CCC(=O)NC7=O)cc6)C5)CC4)cn3)ncn2)ccc1[C@@H](C)NC(=O)c1nc(C(C)(C)C)no1 [Example 53, 3-(tert-butyl)-N—((R)-1-(4-(6-((5-(4-((1S,3r)-3-(4-(((S)-2,6-dioxopiperidin-3-yl)amino)phenyl)cyclobutyl)piperazin-1-yl)pyridin-2-yl)amino)pyrimidin-4-yl)-2-methylphenyl)ethyl)-1,2,4-oxadiazole-5-carboxamide formate] | 1.91 nM | < 5.00 |
| Cc1cc(-c2cc(Nc3ccc(N4CCC5(CC4)CN(CC4CCN(c6ccc(N7CCC(=O)NC7=O)cc6)CC4)C5)cn3)ncn2)ccc1[C@@H](C)NC(=O)c1nc(C(C)(C)C)no1 [Example 32, (R)-3-(tert-butyl)-N-(1-(4-(6-((5-(2-((1-(4-(2,4-dioxotetrahydropyrimidin-1(2H)-yl)phenyl)piperidin-4-yl)methyl)-2,7-diazaspiro [3.5]nonan-7-yl)pyridin-2-yl)amino)pyrimidin-4-yl)-2-methylphenyl)ethyl)-1,2,4-oxadiazole-5-carboxamide] | 1.73 nM | 5.72 |
| Cc1cc(-c2ccnc(Nc3ccc(N4CCN(CC5CCN(c6ccc(N7CCC(=O)NC7=O)cc6)CC5)CC4)cn3)n2)ccc1[C@@H](C)NC(=O)c1nc(C(C)(C)C)no1 [Example 67, (R)-3-(tert-butyl)-N-(1-(4-(2-((5-(4-((1-(4-(2,4-dioxotetrahydropyrimidin-1(2H)-yl)phenyl)piperidin-4-yl)methyl)piperazin-1-yl)pyridin-2-yl)amino)pyrimidin-4-yl)-2-methylphenyl)ethyl)-1,2,4-oxadiazole-5-carboxamide] | 10.6 nM | < 5.00 |
| Cc1cc(-c2cc(Nc3ccc(N4CCN(CC5CCN(c6ccc(N7CCC(=O)NC7=O)cc6)CC5)CC4)nc3)ncn2)ccc1[C@@H](C)NC(=O)c1nc(C(C)(C)C)no1 [Example 13, (R)-3-(tert-butyl)-N-(1-(4-(6-((6-(4-((1-(4-(2,4-dioxotetrahydropyrimidin-1(2H)-yl)phenyl)piperidin-4-yl)methyl)piperazin-1-yl)pyridin-3-yl)amino)pyrimidin-4-yl)-2-methylphenyl)ethyl)-1,2,4-oxadiazole-5-carboxamide] | 32.7 nM | < 5.00 |
| Cc1cc(-c2cc(Nc3ccc(N4CCC5(CC4)CN(C(=O)C4CN(c6ccc(N7CCC(=O)NC7=O)cc6)C4)C5)cn3)ncn2)ccc1[C@@H](C)NC(=O)c1nc(C(C)(C)C)no1 [Example 36, (R)-3-(tert-butyl)-N-(1-(4-(6-((5-(2-(1-(4-(2,4-dioxotetrahydropyrimidin-1(2H)-yl)phenyl)azetidine-3-carbonyl)-2,7-diazaspiro [3.5]nonan-7-yl)pyridin-2-yl)amino)pyrimidin-4-yl)-2-methylphenyl)ethyl)-1,2,4-oxadiazole-5-carboxamide] | 0.566 nM | < 5.00 |
| Cc1cc(-c2cc(Nc3ccc(N4CCN(CC5CCN(c6ccc(N7CCC(=O)NC7=O)c(C)c6)CC5)CC4)cn3)ncn2)ccc1[C@@H](C)NC(=O)c1nc(C(C)(C)C)no1 [Example 18, (R)-3-(tert-butyl)-N-(1-(4-(6-((5-(4-((1-(4-(2,4-dioxotetrahydropyrimidin-1(2H)-yl)-3-methylphenyl)piperidin-4-yl)methyl)piperazin-1-yl)pyridin-2-yl)amino)pyrimidin-4-yl)-2-methylphenyl)ethyl)-1,2,4-oxadiazole-5-carboxamide] | 1.15 nM | < 5.00 |
| Cc1cc(-c2cc(Nc3ccc(N4CCN(CC5CCN(c6ccc(N7CCC(=O)NC7=O)cc6)CC5)CC4)cc3)ncn2)ccc1[C@@H](C)NC(=O)c1nc(C(C)(C)C)no1 [Example 7, (R)-3-(tert-butyl)-N-(1-(4-(6-((4-(4-((1-(4-(2,4-dioxotetrahydropyrimidin-1(2H)-yl)phenyl)piperidin-4-yl)methyl)piperazin-1-yl)phenyl)amino)pyrimidin-4-yl)-2-methylphenyl)ethyl)-1,2,4-oxadiazole-5-carboxamide] | 12.8 nM | < 5.00 |
| Cc1cc(-c2cc(Nc3ccc(N4CCN([C@H]5C[C@H](c6ccc(N[C@@H]7CCC(=O)NC7=O)cc6)C5)CC4)cn3)ncn2)ccc1[C@@H](C)NC(=O)c1nc(C(C)(C)C)no1 [Example 55, 3-(tert-butyl)-N—((R)-1-(4-(6-((5-(4-((1R,3r)-3-(4-(((R)-2,6-dioxopiperidin-3-yl)amino)phenyl)cyclobutyl)piperazin-1-yl)pyridin-2-yl)amino)pyrimidin-4-yl)-2-methylphenyl)ethyl)-1,2,4-oxadiazole-5-carboxamide] | 2.08 nM | < 5.00 |
| Cc1cc(-c2cc(Nc3ccc(N4CCN(CC5CCN(c6ccc(N7CCC(=O)NC7=O)cc6F)CC5)CC4)cc3)ncn2)c(F)cc1[C@@H](C)NC(=O)c1nc(C(C)(C)C)no1 [Example 3, (R)-3-(tert-butyl)-N-(1-(4-(6-((4-(4-((1-(4-(2,4-dioxotetrahydropyrimidin-1(2H)-yl)-2-fluorophenyl)piperidin-4-yl)methyl)piperazin-1-yl)phenyl)amino)pyrimidin-4-yl)-5-fluoro-2-methylphenyl)ethyl)-1,2,4-oxadiazole-5-carboxamide] | 104 nM | < 5.00 |
| Cc1cc(-c2cc(Nc3ccc(N4CCN(C5CN(C6CN(c7ccc(N8CCC(=O)NC8=O)cc7)C6)C5)CC4)cn3)ncn2)ccc1[C@@H](C)NC(=O)c1nc(C(C)(C)C)no1 [Example 39, (R)-3-(tert-butyl)-N-(1-(4-(6-((5-(4-(1′-(4-(2,4-dioxotetrahydropyrimidin-1(2H)-yl)phenyl)-[1,3′-biazetidin]-3-yl)piperazin-1-yl)pyridin-2-yl)amino)pyrimidin-4-yl)-2-methylphenyl)ethyl)-1,2,4-oxadiazole-5-carboxamide] | 0.209 nM | < 5.00 |
| Cc1cc(-c2cc(Nc3ccc(N4CCN(CC5CCN(c6ccc(CN7CCC(=O)NC7=O)cc6)CC5)CC4)cn3)ncn2)ccc1[C@@H](C)NC(=O)c1nc(C(C)(C)C)no1 [Example 59, (R)-3-(tert-butyl)-N-(1-(4-(6-((5-(4-((1-(4-((2,4-dioxotetrahydropyrimidin-1(2H)-yl)methyl)phenyl)piperidin-4-yl)methyl)piperazin-1-yl)pyridin-2-yl)amino)pyrimidin-4-yl)-2-methylphenyl)ethyl)-1,2,4-oxadiazole-5-carboxamide] | 10.2 nM | < 5.00 |
| Cc1cc(-c2cc(Nc3ccc(N4CCN(C5CN(C6CN(c7ccc8c(c7)C(=O)N(C7CCC(=O)NC7=O)C8=O)C6)C5)CC4)cn3)ncn2)ccc1[C@@H](C)NC(=O)c1nc(C(C)(C)C)no1 (stereo partly drawn) [Example 44, 3-(tert-butyl)-N-((1R)-1-(4-(6-((5-(4-(1′-(2-(2,6-dioxopiperidin-3-yl)-1,3-dioxoisoindolin-5-yl)-[1,3′-biazetidin]-3-yl)piperazin-1-yl)pyridin-2-yl)amino)pyrimidin-4-yl)-2-methylphenyl)ethyl)-1,2,4-oxadiazole-5-carboxamide] | 1.63 nM | < 5.00 |
| Cc1cc(-c2cc(Nc3ccc(C4CN(CC5CCN(c6ccc(N7CCC(=O)NC7=O)cc6)CC5)C4)cn3)ncn2)ccc1[C@@H](C)NC(=O)c1nc(C(C)(C)C)no1 [Example 23, (R)-3-(tert-butyl)-N-(1-(4-(6-((5-(1-((1-(4-(2,4-dioxotetrahydropyrimidin-1(2H)-yl)phenyl)piperidin-4-yl)methyl)azetidin-3-yl)pyridin-2-yl)amino)pyrimidin-4-yl)-2-methylphenyl)ethyl)-1,2,4-oxadiazole-5-carboxamide] | 1.14 nM | 5.54 |
| Cc1cc(-c2cc(Nc3ccc(N4CCN(C5CC6(CCN(c7ccc(N8CCC(=O)NC8=O)cc7)CC6)C5)CC4)cn3)ncn2)ccc1[C@@H](C)NC(=O)c1nc(C(C)(C)C)no1 [Example 43, (R)-3-(tert-butyl)-N-(1-(4-(6-((5-(4-(7-(4-(2,4-dioxotetrahydropyrimidin-1(2H)-yl)phenyl)-7-azaspiro[3.5]nonan-2-yl)piperazin-1-yl)pyridin-2-yl)amino)pyrimidin-4-yl)-2-methylphenyl)ethyl)-14-oxadiazole-5-carboxamide] | 2.99 nM | < 5.00 |
| Cc1cc(-c2cc(Nc3ncc(N4CCN(CC5CCN(c6ccc(N7CCC(=O)NC7=O)cc6)CC5)CC4)s3)ncn2)c(F)cc1[C@@H](C)NC(=O)c1nc(C(C)(C)C)no1 [Example 71, (R)-3-(tert-butyl)-N-(1-(4-(6-((5-(4-((1-(4-(2,4-dioxotetrahydropyrimidin-1(2H)-yl)phenyl)piperidin-4-yl)methyl)piperazin-1-yl)thiazol-2-yl)amino)pyrimidin-4-yl)-5-fluoro-2-methylphenyl)ethyl)-1,2,4-oxadiazole-5-carboxamide] | 17.9 nM | < 5.00 |
| Cc1cc(-c2cc(Nc3ccc(N4CCN(CCc5cccc6c5n(C)c(=O)n6C5CCC(=O)NC5=O)CC4)cn3)ncn2)ccc1[C@@H](C)NC(=O)c1nc(C(C)(C)C)no1 (stereo partly drawn) [Example 50, 3-(tert-butyl)-N-((1R)-1-(4-(6-((5-(4-(2-(1-(2,6-dioxopiperidin-3-yl)-3-methyl-2-oxo-2,3-dihydro-1H-benzo[d]imidazol-4-yl)ethyl)piperazin-1-yl)pyridin-2-yl)amino)pyrimidin-4-yl)-2-methylphenyl)ethyl)-1,2,4-oxadiazole-5-carboxamide] | 0.632 nM | 6.04 |
